Reference: patent US11142524B2, “Substituted-3H-imidazo[4,5-c]pyridine and 1H-pyrrolo[2,3-c]pyridine series of novel Ectonucleotide Pyrophosphatase/Phosphodiesterase-1 (ENPP1) and stimulator for interferon genes (STING) modulators as cancer immunotherapeutics” (Stingray Therapeutics, Inc., priority 2018, dated 2021)
Like-named read-outs stand apart in the source and are kept apart here.

How the values were obtained:
ENPP1 protein [1] = target: T1, ENPP1 protein (Homo sapiens (Human), UniProt P22413); experiment: ENPP1 enzymatic assay with TMP substrate (FIG. 8); assay type: biochemical; conditions: 5.0 ng ENPP1, 150 μM TMP substrate
Procedure: FIG. 8 depicts results of a similar experiment. 5.0 ng of ENPP1 protein exposed to increasing doses of inhibitor (compound 78 or compound 107-02) for 10 minutes in solution, followed by the addition of 150 μM of TMP substrate. The assay was then incubated for 20 minutes and then read at 405 nm on the envision plate reader.
Target sequence in this assay (P22413 whole entry, looked up): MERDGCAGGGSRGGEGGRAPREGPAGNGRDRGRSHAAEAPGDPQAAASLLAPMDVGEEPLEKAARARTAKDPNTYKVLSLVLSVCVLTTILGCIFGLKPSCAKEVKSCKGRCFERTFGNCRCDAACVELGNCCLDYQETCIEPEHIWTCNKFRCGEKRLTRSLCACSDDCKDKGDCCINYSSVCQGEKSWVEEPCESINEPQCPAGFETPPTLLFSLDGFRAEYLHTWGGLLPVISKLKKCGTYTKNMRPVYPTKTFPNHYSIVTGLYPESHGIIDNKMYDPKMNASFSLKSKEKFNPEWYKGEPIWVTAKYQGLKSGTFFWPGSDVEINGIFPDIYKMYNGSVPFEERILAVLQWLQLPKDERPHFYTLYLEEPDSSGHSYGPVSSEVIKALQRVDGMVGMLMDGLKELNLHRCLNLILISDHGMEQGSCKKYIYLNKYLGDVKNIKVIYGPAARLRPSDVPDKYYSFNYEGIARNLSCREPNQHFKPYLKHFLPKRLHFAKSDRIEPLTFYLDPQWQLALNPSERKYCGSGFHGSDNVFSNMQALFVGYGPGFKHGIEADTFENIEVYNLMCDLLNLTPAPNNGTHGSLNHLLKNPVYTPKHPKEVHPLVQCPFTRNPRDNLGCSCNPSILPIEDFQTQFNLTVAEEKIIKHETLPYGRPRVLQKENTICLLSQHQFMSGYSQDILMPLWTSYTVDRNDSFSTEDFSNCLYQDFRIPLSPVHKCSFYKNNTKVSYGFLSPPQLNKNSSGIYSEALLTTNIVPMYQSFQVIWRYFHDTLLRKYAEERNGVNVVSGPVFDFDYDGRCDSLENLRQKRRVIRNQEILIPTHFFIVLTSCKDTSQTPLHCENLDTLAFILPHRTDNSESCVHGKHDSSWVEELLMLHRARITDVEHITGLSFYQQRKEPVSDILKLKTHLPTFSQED

[2] = target: Recombinant Human ENPP-1 Protein (purified in-house) (Homo sapiens (Human), UniProt P22413); experiment: ENPP1 Assay (ATP), Example 2; assay type: biochemical
Procedure: Assay Buffer: 1 mM CaCl2, 0.2 mM ZnCl2, 50 mM Tris, pH 9.0. Substrate: 100 μM Adenosine 5′-triphosphate disodium salt hydrate (Promega: V703A)—Assay Conc.: 10 μM. Enzyme: 1 ng/μL Recombinant Human ENPP-1 Protein (purified in-house)—Assay Conc.: 5 ng/well of DMSO in 96-well white assay plates. Cell Titer Glo (Promega, cat #G7572).
A ten point serial dilution of drugs was prepared in 10× in assay buffer with the final assay concentrations starting at 10 μM, 3 μM, 1 μM, 0.3 μM . . . 0 μM. A dilution of DMSO was included as a control. The assay plate was set up as follows with each well in duplicate: 75 μL assay buffer+10 μL ENPP1 inhibitor or DMSO Dilutions+10 μL Substrate+5 μL Enzyme (5 ng). Both the enzyme and substrate were added to opposite sides of the well to ensure that there was no interaction until all wells had both components. The plate was then centrifuged gently for 10 seconds, followed by incubation at RT for 20 minutes. To detect levels of ATP, Cell Titer Glo was added 1:1 to each well and incubated for 10 minutes. The reaction was quantified by measuring luminescence using the Envision Plate Reader.

ENPP1 protein [3] = target: T1, ENPP1 protein; experiment: ENPP1 Thermal Shift Assay (Example 1); assay type: binding; conditions: Table 2, FIG. 7, 100 μM drug, 1.0 μg ENPP1
Target sequence in this assay (P22413 whole entry, looked up, change not shown): as the sequence (P22413 whole entry, looked up) above

UWB1.289 = experiment: Chou-Talalay Synergy Study with Olaparib, UWB1.289; assay type: cell-based; conditions: UWB1.289, 72 hours
Procedure: Cell Lines: MDA-MB-468 and UWB289.1 (ATCC). Cell Titer Glo (Promega cat #: G7572). 96-well TC treated, white assay plates
Cells were cultured according to ATCC tissue culture recommendations. Cells were plated in a 96-well tissue culture plate at a density of 1500 cells/well and allowed to settle overnight. The following day, both drugs were prepared at 10× concentration in the following ratios (Compound 22:Olaparib): 1:1, 10:1, and 1:10. The drugs were serially diluted to create an 8-point dose curve and 10 μL of each drug was added to the cells for a total volume of 100 μL/well. Plates were placed in a tissue culture incubator for 72 hours. Following incubation, each plate was treated with Cell Titer Glo according to vendor recommendation and luminescence was measured with the Envision Plate Reader. Data was analyzed using CalcuSyn software according to the methods described in Chou, Drug combination studies and their synergy quantification using the Chou-Talalay method, Cancer Res. 2010 Jan. 15; 70(2):440-6.
A Combination index (CI) value greater than 1 indicates […], equal to 1 indicates additive and less than 1 indicates synergy.

ENPP1 protein [4] = target: T1, ENPP1 protein; experiment: ENPP1 Inhibition Assay (thymidine 5′-monophosphate p-nitrophenol ester substrate); assay type: biochemical
Procedure: Assay Buffer: 1 mM CaCl2, 0.2 mM ZnCl2, 50 mM Tris, pH 9.0. Substrate: 8 mM Thymidine 5′-monophosphate p-nitrophenol ester sodium salt (Sigma Cat #T4510). Enzyme: 5 ng/L Recombinant Human ENPP-1 Protein (R&D Cat #6136-EN-010) in DMSO in 96-well clear assay plates
An eight point serial dilution of drugs was prepared in 10× in assay buffer with the final assay concentrations starting at 10 μM, 3 μM, 1 μM, 0.3 μM . . . 0 μM. A dilution of DMSO was included as a control. The assay plate was set up as follows with each well in duplicate: 81 μL assay buffer+10 μL ENPP1 inhibitor or DMSO+5 μL Substrate+4 μL Enzyme. Both the enzyme and substrate were added to opposite sides of the well to ensure that there was no interaction until all wells had both components. The plate was then centrifuged gently for 10 seconds, followed by an incubation at 37° C. for 45 minutes. The reaction was quantified by measuring absorbance at 405 nm using the Envision.
IC50 values are determined using GraphPad Prism 5 software. The data were entered as an X-Y plot into the software as percent inhibition for each concentration of the drug. The concentration values of the drug were log transformed and the nonlinear regression was carried out using the “sigmoidal dose-response (variable slope)” option within the GraphPad software to model the data and calculate IC50 values. The IC50 values reported are the concentration of drug at which 50% inhibition was reached.
Target sequence in this assay (P22413 whole entry, looked up, change not shown): as the sequence (P22413 whole entry, looked up) above

Recombinant Human ENPP-1 Protein (purified in-house), sequence (P22413 whole entry, looked up): as above

- enzymatic activity (ENPP1 protein [1]): significant decrease
- IC50 ([2]; FIG. 5B, ATP substrate, read-out: IC50): 0.0731 µM
- IC50 ([2]; Table 5, ATP substrate, read-out: ENPP1 (IC50 μM) ATP): 0.116 µM
- Tm (° C.) (ENPP1 protein [3]; NT 60.05): 61.16 °C
- ΔTm at 100 µM (ENPP1 protein [3]; read-out: ΔTm (° C.)): 1.11 °C
- inhibiting the activity of ENPP1 (ENPP1 protein [4]; FIG. 1): effective
- IC50 (ENPP1 protein [4]; Table 1, FIG. 1, read-out: IC50): 79.7 nM
Compound: COc1ccc(NC(=O)CSc2nc3c(C)c(C#N)ncc3[nH]2)cc1O [Compound 78, 2-((6-Cyano-7-methyl-3H-imidazo[4,5-c]pyridin-2-yl)thio)-N-(3-hydroxy-4-methoxyphenyl) acetamide]
- ED50 Drug Concentration Compound 78 (UWB1.289): 48800 nM
